Results from patent US20150031572A1, “MEANS AND METHODS FOR ASSESSING NEURONAL TOXICITY” (priority 2012, published 2015).
Counter-ions that a name gives are not always drawn. Marks after values point to notes of the source that are not given here.

Assay: Plasma metabolite profiling (GC-MS, LC-MS, SPE-LC-MS) of rats dosed once daily over 28 days; treatment ratios versus untreated control
Format: in vivo, rat
Experimental: A group of each 5 male and female rats was dosed once daily with the indicated compounds (see Table 10, below for compounds, applied doses and administration details) over 28 days.
Each dose group in the studies consisted of five rats per sex. Additional groups of each 5 male and female animals served as controls. Before starting the treatment period, animals, which were 62-64 days old when supplied, were acclimatized to the housing and environmental conditions for 7 days. All animals of the animal population were kept under the same constant temperature (20-24±3° C.) and the same constant humidity (30-70%). The animals of the animal population were fed ad libitum. The food to be used was essentially free of chemical or microbial contaminants. Drinking water was also offered ad libitum. Accordingly, the water was free of chemical and microbial contaminants as laid down in the European Drinking Water Directive 98/83/EG. The illumination period was 12 hours light followed by 12 hours darkness (12 hours light, from 6:00 to 18:00, and 12 hours darkness, from 18:00 to 6:00). […] The test substances (compounds) in the Tables 1 to 9 below were dosed and administered as described in the Table 10 above.
In the morning of day 7, 14, and 28, blood was taken from the retro-orbital venous plexus from fasted anaesthetized animals. From each animal, 1 ml of blood was collected with EDTA as anticoagulant. The samples were centrifuged for generation of plasma. All plasma samples were covered with a N2 atmosphere and then stored at −80° C. until analysis.
For mass spectrometry-based metabolite profiling analyses plasma samples were extracted and a polar and a non-polar (lipid) fraction was obtained. For GC-MS analysis, the non-polar fraction was treated with methanol under acidic conditions to yield the fatty acid methyl esters. Both fractions were further derivatised with O-methyl-hydroxyamine hydrochloride and pyridine to convert Oxogroups to O-methyloximes and subsequently with a silylating agent before analysis. In LC-MS analysis, both fractions were reconstituted in appropriate solvent mixtures. HPLC was performed by gradient elution on reversed phase separation columns. Mass spectrometric detection which allows target and high sensitivity MRM (Multiple Reaction Monitoring) profiling in parallel to a full screen analysis was applied as described in WO2003073464.
Steroids and their metabolites were measured by online SPE-LC-MS (Solid phase extraction-LC-MS).
Following comprehensive analytical validation steps, the data for each analyte were normalized against data from pool samples. These samples were run in parallel through the whole process to account for process variability. The significance of treatment group values specific for sex, treatment duration and metabolite was determined by comparing means of the treated groups to the means of the respective untreated control groups using WELCH-test and quantified with treatment ratios versus control and p-values.
The identification of the most important biomarkers per toxicity pattern was done by a ranking of the analytes in the tables below. Therefore the metabolic changes in reference treatments of a given pattern (shown in the table) were compared with changes of the same metabolite in other unrelated treatments. […] The maximum absolute value of the respective TVALUE was taken to indicate the most important metabolite for the pattern.

[1] = plasma, female rats, day 28, high dose, Table 6a
[2] = plasma, female rats, day 28, high dose, Table 6b
[3] = plasma, female rats, day 28, high dose, Table 8c
[4] = plasma, female rats, day 28, high dose, Table 8d

SMILES	Isoleucine, ratio versus control [1]	4-Hydroxy-3-methoxyphenylglycol (HMPG), ratio versus control [2]	14-Methylhexadecanoic acid, ratio versus control [2]	16-Methylheptadecanoic acid, ratio versus control [2]	17-Methyloctadecanoic acid, ratio versus control [2]	Ceramide (d18:1,C24:1), ratio versus control [2]	Choline plasmalogen No 03, ratio versus control [2]	Homovanillic acid (HVA), ratio versus control [2]	Isopalmitic acid (C16:0), ratio versus control [2]	Lactate, ratio versus control [2]	Myristic acid (C14:0), ratio versus control [2]	Phosphatidylcholine (C16:0, C20:4), ratio versus control [2]	Phosphatidylcholine No 04, ratio versus control [2]	Pyruvate, ratio versus control [2]	3-Hydroxybutyrate, ratio versus control [3]	Isoleucine, ratio versus control [3]	TAG (C16:0,C18:2), ratio versus control [3]	16-Methylheptadecanoic acid, ratio versus control [4]	17-Methyloctadecanoic acid, ratio versus control [4]	Ceramide (d18:1,C24:1), ratio versus control [4]	further results
C#C[C@]1(O)CC[C@H]2[C@@H]3CCc4cc(O)ccc4[C@H]3CC[C@@]21C [17-alpha-Ethynylestradiol]	1.07	0.7*	0.86*	0.29*	0.46*	0.6*	0.38*	0.47*	0.51*	0.99	0.59*	0.78*	0.39*	0.87*	–	–	–	–	–	–	3-Methoxytyrosine, ratio versus control [1]: 1.29*
CN1CCc2cccc3c2[C@H]1Cc1ccc(O)c(O)c1-3 [Apomorphine]	1.25*	–	0.83*	0.66*	0.73*	0.61*	0.89*	–	0.93	0.9	0.9*	0.88*	0.88*	0.33*	1.41 *	1.25 *	2.31 *	0.66 *	0.73 *	0.61 *	Phosphatidylcholine (C16:0, C20:4), ratio versus control [4]: 0.88 *; Phosphatidylcholine (C18:0, C20:3), ratio versus control [4]: 0.98 *; Pyruvate, ratio versus control [4]: 0.33 *
CC(C)C[C@H]1C(=O)N2CCC[C@H]2[C@]2(O)O[C@](NC(=O)[C@@H]3C=C4c5cccc6[nH]c(Br)c(c56)C[C@H]4N(C)C3)(C(C)C)C(=O)N12 [Bromocriptine Mesylate]	1.14*	–	0.85*	0.51*	0.67*	0.6*	0.62*	–	0.62*	0.47*	0.84	0.94*	0.47*	0.71*	1.13^	1.14 *	1.2 *	0.51 *	0.67 *	0.6 *	Phosphatidylcholine (C16:0, C20:4), ratio versus control [4]: 0.94 *; Phosphatidylcholine (C18:0, C20:3), ratio versus control [4]: 0.71 *; Pyruvate, ratio versus control [4]: 0.71 *
C=CCN1C[C@H](C(=O)N(CCCN(C)C)C(=O)NCC)C[C@@H]2c3cccc4[nH]cc(c34)C[C@H]21 [Cabergoline]	1.14*	0.79*	0.74*	0.28*	0.3*	0.39*	0.39*	0.41*	0.36*	0.7*	0.33*	0.97	0.34*	0.93	–	–	–	–	–	–	3-Methoxytyrosine, ratio versus control (rat, in vivo): 1.24*
